PMC3156297 (2011)
pKi: −log10 of the molar value.

Molecular target: T1, soluble epoxide hydrolase (sEH) (Homo sapiens, UniProt P34913)
T1 sequence (P34913 1-555): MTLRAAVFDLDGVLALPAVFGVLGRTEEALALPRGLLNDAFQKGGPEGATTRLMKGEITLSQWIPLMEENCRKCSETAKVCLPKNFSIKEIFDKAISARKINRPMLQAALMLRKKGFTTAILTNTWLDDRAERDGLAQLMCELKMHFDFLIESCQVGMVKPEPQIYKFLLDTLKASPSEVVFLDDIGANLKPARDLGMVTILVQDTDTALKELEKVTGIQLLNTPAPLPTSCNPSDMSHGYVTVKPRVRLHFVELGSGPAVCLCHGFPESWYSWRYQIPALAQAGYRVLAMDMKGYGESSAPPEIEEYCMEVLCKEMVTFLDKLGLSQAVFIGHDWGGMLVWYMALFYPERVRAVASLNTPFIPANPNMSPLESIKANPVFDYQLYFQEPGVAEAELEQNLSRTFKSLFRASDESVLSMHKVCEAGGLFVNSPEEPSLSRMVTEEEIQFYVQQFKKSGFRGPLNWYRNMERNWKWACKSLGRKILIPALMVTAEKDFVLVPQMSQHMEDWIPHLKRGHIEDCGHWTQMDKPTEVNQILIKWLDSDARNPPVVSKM
Assay: recombinant enzyme inhibition
Type: biochemical

Compound: O=C(Nc1ccc(Cl)cc1)Nc1ccc(Cl)c(Cl)c1 [TCC, 3,4,4′-trichlorocarbanilide]
- pKi: 7.02
